Experimental data reported in US20060088545A1, “Use of inhibitors of the protease of the human immunodeficiency virus (hiv) to block cell migration and/or invasion, tissue infiltration and oedema for the therary of diseases associated therewith” (priority 2001, published 2006).

Test system: angiogenesis induced by bFGF or VEGF in the chorioallantoic membrane
Procedure: CAM assays were performed with 1 mm^3 sterilized gelatin sponges (Gelfoam; Upjohn Co, Kalamazoo, Mich.) adsorbed with bFGF or VEGF (1 μg or 100 ng, respectively) in 5 μl of PBS, and with buffer, HIV-PI (10 μM) or taxol (250 nM) (Bristol-Myers Squibb Co., Princeton, N.J.) as described (Ribatti et al, Int. J. Dev. Biol., 1996). CAM were examined daily until day 12 under an Olympus SZX9 stereomicroscope. Images (1024×1024 pixels) were captured at a distance of 2 mm from the edge of the sponge using a cooled digital CCD Hamamatsu ORCA camera (Hamamatsu Photonics Italia, Arese, Italy). Vessel number was quantified with the ImageProPlus 4.0 imaging software (Media Cybernetics, Silver Spring, Md.) in 3 randomly selected areas per egg ([…]).
Results are expressed as the average number of vessels/mm^2±SD from the indicated number of CAM per experimental condition.

CC(=O)O[C@H]1C(=O)[C@@]2(C)[C@H]([C@H](OC(=O)c3ccccc3)[C@]3(O)C[C@H](OC(=O)[C@H](O)[C@@H](NC(=O)c4ccccc4)c4ccccc4)C(C)=C1C3(C)C)[C@]1(OC(C)=O)CO[C@@H]1C[C@@H]2O [Taxol, taxol]
Average vessel (number/mm^2 ± SD) (bFGF 1 μg, HIV-PI 10 μM, taxol 250 nM): 7.71 ± 1.63 number/mm^2
basal CAM vascularization (drug administered alone): did not affect
toxicity in CAM (in vivo): not associated with toxicity
